# Measured values: patent publication US4730069A, “Cis-platinum complexes with a pentaerythritol derivative as the ligand, a process for their preparation and a pharmaceutical agent containing these compounds” (Behringwerke Aktiengesellschaft, priority 1984, dated 1988)
# Test system: NMRI mice
# Test: Determination of the acute toxicity (NMRI mice, intravenous)
# Type: in vivo
# Settings: intravenous on day 0, survival on day 14, which LD not stated
# Procedure: To determine the acute toxicity, NMRI mice are injected intravenously on day 0 with different doses of the test substance, dissolved in 0.5 ml of physiological saline solution. Control groups receive only 0.5 ml of physiological saline solution. 5 mice are used per concentration of the test substance. On day 14, the number of surviving mice is determined and the LD5, LD50 and LD95 are determined therefrom by the Litchfield Wilcoxon method. The toxicity of the compounds described here is summarized in comparison with cisplatin in Table 1.
substance,measurement,value
"5,5-Bis-(aminomethyl)-2-methyl-2-octadecyl-1,3-dioxane-platinum(II) hydroxide [Compound 57]","Acute toxicity (LD5, LD50 and LD95 by the Litchfield Wilcoxon method) (Table 1, column c)",3.4
